{"source": "paper PMC10700673", "about": "“A Smart Intracellular Self‐Assembling Bioorthogonal Raman Active Nanoprobe for Targeted Tumor Imaging” (Advanced Science, 2023)", "biological_target": "T1, Recombinant human legumain (Homo sapiens, UniProt Q99538)", "T1 construct": "purchased R&D systems", "T1 sequence (Q99538 18-433)": "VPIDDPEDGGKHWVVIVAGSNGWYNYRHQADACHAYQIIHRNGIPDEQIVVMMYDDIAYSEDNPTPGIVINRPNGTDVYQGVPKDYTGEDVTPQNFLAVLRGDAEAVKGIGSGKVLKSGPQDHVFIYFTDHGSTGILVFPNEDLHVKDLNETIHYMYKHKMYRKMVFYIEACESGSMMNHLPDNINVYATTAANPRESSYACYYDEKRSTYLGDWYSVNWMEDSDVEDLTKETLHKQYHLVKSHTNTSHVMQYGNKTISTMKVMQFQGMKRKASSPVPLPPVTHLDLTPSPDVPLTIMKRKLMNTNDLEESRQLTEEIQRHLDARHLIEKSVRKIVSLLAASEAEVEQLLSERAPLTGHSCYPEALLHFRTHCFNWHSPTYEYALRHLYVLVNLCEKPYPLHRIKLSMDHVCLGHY", "assay": "legumain- and GSH-triggered cleavage and condensation in solution (Raman, HPLC, MALDI)", "assay_type": "biochemical", "conditions": "37 °C", "method": "The detailed synthetic procedures and characterization of the nanoSABER probe are given in Scheme S1 and Figures S1 and S2 (Supporting Information), respectively. The Raman signatures of nanoSABER (Figure 2a) display the vibrational stretching frequencies of alkyne and nitrile at 2121 and 2230 cm^−1, respectively. The ratio of alkyne/nitrile Raman peak intensity in the nanoSABER solutions was measured to be 0.21±0.04. Next, we studied the cleavage of the nanoSABER probe by legumain, leading to the formation of supramolecular self‐assembled nanoparticles. This was verified using high‐resolution matrix‐assisted laser desorption/ionization–time‐of‐flight mass spectrometry (MALDI), RS, and high‐performance liquid chromatography (HPLC). We first incubated 25 µM of nanoSABER probe with 250 µM GSH for 2 h at 37 °C. This reduced the disulfide bond of D‐cysteine, producing reduced nanoSABER, which was identified using HPLC and MALDI by the appearance of a peak at a retention time of 16.5 min (Figure 2b) and an observed mass of 1737.5 (Figure 2c). When nanoSABER was co‐incubated with 250 µM GSH and 3 µL (10 µg/50 µL) legumain enzyme for 3 h at 37 °C, the reduced nanoSABER that was generated in situ reacted with the legumain enzyme to form an active cleaved intermediate. The latter underwent intermolecular condensation to yield the alkyne‐dimer. […] Both HPLC fractions were collected and characterized by MALDI.\nFigure 2 Optical and structural properties of nanoSABER (R6‐AAN‐alkyne‐nitrile) and alkyne‐dimer. a) Raman spectra of R6AAN‐alkyne and nanoSABER showing the alkyne and nitrile vibrational stretching frequency at 2121 cm^−1 and 2230 cm^−1, respectively, expressed as the mean ± standard deviation for n = 22 independent in vitro measurements. b) HPLC chromatogram of 250 µM nanoSABER (red) and 250 µM nanoSABER + 1 mM GSH incubated for 3 h (green), and 250 µM nanoSABER + 1 mM GSH + 3 µL (10 µg/50 µL) legumain incubated for 3 h (blue). c–e) HR‐MALDI‐TOF/MS spectra of reduced nanoSABER, cleaved R6‐AAN, and alkyne‐dimer. f) Raman spectra of 250 µM nanoSABER + 1 mM GSH + 3 µL (10 µg/50 µL) legumain incubated for 3 h, shown as the mean with a standard deviation of n = 22 independent in vitro measurements. g) Enzymatic conversion ratios of 250 µM nanoSABER in the presence of 1 mM GSH and 3 µL (10 µg/50 µL) legumain enzyme as a function of time, as calculated from the alkyne/nitrile Raman peak intensity ratio. h,i) TEM and DLS of alkyne‐dimer nanoparticles (red circles) after incubation of 250 µM nanoSABER + 1 mM GSH + 3 µL (10 µg/50 µL) legumain for 3 h at 37 °C. All subpanels reflect representative data from i n vitro experiments repeated three times unless stated.\nTo accurately evaluate the efficiency of the R6‐AAN‐alkyne‐nitrile nanoprobe, time‐dependent Raman measurements were performed (Figure 2g), where the ratio of alkyne/nitrile peak intensity was used as an indicator of the reaction progress. We found as the reaction progressed the alkyne/nitrile peak intensity increased from 0.22±0.01 to 4.4±0.12 and plateaued at a final value of 4.6±0.12 indicating almost complete conversion of nanoSABER to alkyne‐dimer within 3 h. […] To further get insight into the structural arrangements of the self‐assembled dimers, transmission electron microscopy (TEM) was performed. […]"}
{"substance": "Ac‐Arg‐Arg‐Arg‐Arg‐Arg‐Arg‐Ala‐Ala‐Asn‐Cys(StBu)‐Pra‐Lys‐CBT [nanoSABER]", "values": [{"measurement": "cleavage and condensation by legumain (HPLC retention time and MALDI mass)", "setting": "250 µM + 1 mM GSH + 3 µL (10 µg/50 µL) legumain, 3 h", "value": "efficiently cleaved by legumain"}, {"measurement": "time to almost complete conversion to alkyne-dimer", "setting": "250 µM nanoSABER + 1 mM GSH + 3 µL (10 µg/50 µL) legumain, from the alkyne/nitrile Raman ratio", "value": "≤ 3", "unit": "h"}, {"measurement": "alkyne/nitrile peak intensity ratio, start of reaction", "setting": "250 µM nanoSABER + 1 mM GSH + 3 µL (10 µg/50 µL) legumain, time-dependent Raman, initial value", "value": "0.22±0.01"}, {"measurement": "alkyne/nitrile peak intensity ratio, plateau final value", "setting": "250 µM nanoSABER + 1 mM GSH + 3 µL (10 µg/50 µL) legumain, time-dependent Raman, plateau", "value": "4.6±0.12"}, {"measurement": "alkyne/nitrile peak intensity ratio, as the reaction progressed", "setting": "250 µM nanoSABER + 1 mM GSH + 3 µL (10 µg/50 µL) legumain, time-dependent Raman, value reached before plateau", "value": "4.4±0.12"}]}
